Non-standard residues stand in square brackets, D forms with d. Residues, ends and D or L forms follow the SMILES beside them.

In one data set the target is T1, ETA receptor (Rattus norvegicus, UniProt P26684).
T1 construct: host or cells: whole animal, central (intracerebroventricular) administration
T1 sequence (P26684 21-426): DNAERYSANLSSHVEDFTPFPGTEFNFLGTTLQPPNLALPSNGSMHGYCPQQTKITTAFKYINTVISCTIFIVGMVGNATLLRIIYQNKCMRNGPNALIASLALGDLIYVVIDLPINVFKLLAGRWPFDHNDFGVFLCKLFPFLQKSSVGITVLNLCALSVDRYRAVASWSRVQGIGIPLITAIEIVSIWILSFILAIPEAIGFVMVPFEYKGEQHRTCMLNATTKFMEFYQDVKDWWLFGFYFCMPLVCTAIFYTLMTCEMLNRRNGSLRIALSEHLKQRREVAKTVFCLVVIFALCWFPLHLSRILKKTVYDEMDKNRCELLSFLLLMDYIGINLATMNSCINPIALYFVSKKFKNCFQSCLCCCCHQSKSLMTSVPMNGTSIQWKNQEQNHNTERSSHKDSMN
The note with it: cited from earlier work.

Data set [1] can be described thus: Body weight of mice before drug and at end of experiment. The note with it: before drug vs 7 hours after acetaminophen, acetaminophen 300 mg/kg s.c., BQ123 3 μg i.c.v. In kind it is in vivo. The procedure:
(§1) Male Swiss-Webster mice weighing 25 to 30 grams (Harlan, Indianapolis, Ind.) were housed four per cage in a room having a controlled ambient temperature (23±1° C.), humidity (50±10%), and twelve-hour light/dark cycle (6:00 a.m. to 6:00 p.m.). Food and water were available ad libitum. The experiments were-performed after the mice were acclimated to this environment for at least four days.
For i.c.v. administration of the endothelin antagonist BQ123, a mouse was grasped firmly by the loose skin behind the head and the skin was pulled taut. The site of injection was 2 mm from either side of the midline drawn through the anterior base of the ears. A 27 gauge sterile hypodermic needle attached to a 10 μL sterile Hamilton syringe was inserted perpendicularly through the skull into the brain, and vehicle (sterile saline) or BQ123 was delivered to the ventricle of the mouse brain (see T. J. Haley et al., Brit. J. Pharmacol., 12(12), (1957)). BQ123 (3 μg) or vehicle was administered i.c.v. and volume of drug injection was 5 μL. […]
The body weight of all mice was measured, and no change in body weight between various groups of mice was observed (FIG. 2). Body weight was measured before administration of any drug and at the end of the experiment (i.e., 7 hours after the administration of acetaminophen).

Data set [2] can be described thus: Measurement of body temperature (colonic temperature, telethermometer). In kind it is in vivo. The conditions noted are these: for change in body temperature, drug alone: acetaminophen 300 mg/kg s.c. or BQ123 3 μg i.c.v., over 360 minutes. The procedure: as §1
(§2) For i.c.v. administration of the endothelin antagonist BQ123, a mouse was grasped firmly by the loose skin behind the head and the skin was pulled taut. The site of injection was 2 mm from either side of the midline drawn through the anterior base of the ears. A 27 gauge sterile hypodermic needle attached to a 10 μL sterile Hamilton syringe was inserted perpendicularly through the skull into the brain, and vehicle (sterile saline) or BQ123 was delivered to the ventricle of the mouse brain (see T. J. Haley et al., Brit. J. Pharmacol., 12(12), (1957)). BQ123 (3 μg) or vehicle was administered i.c.v. and volume of drug injection was 5 μL. Vehicle or BQ123 pretreatment was performed 30 minutes prior to administration of acetaminophen (300 mg/kg s.c.).
(§3) The mice were divided into the following four groups (N=5 in each group): group I (P+V) received vehicle (V) (saline 5 μl, i.c.v.) and placebo (P) (vehicle 100 μl/kg, s.c.); group 2 (P+BQ) received BQ123 (BQ) (3 μg. i.c.v. in a volume of 5 μl of saline) and placebo (P) (vehicle 100 μl/kg, s.c.); group 3 (A+V) received vehicle (V) (saline 5 μl, i.c.v.) and acetaminophen (A) (300 mg/kg, s.c. in a volume of 100 μl/kg); and group 4 (A+BQ) received BQ123 (BQ) (3 μg, i.c.v. in a volume of 5 μl) and acetaminophen (A) (300 mg/kg, s.c. in a volume of 100 μl/kg). Vehicle or BQ123 pretreatment was performed 30 minutes prior to administration of acetaminophen (FIG. 1).
The change in body temperature in response to acetaminophen (300 mg/kg) was determined (Bhargava, 1997). The colonic temperature of each mouse was recorded before and at various times after the injection of acetaminophen over a period of 360 minutes using a telethermometer. Body temperature data was expressed as mean±SEM.

Data set [3] can be described thus: Measurement of tail-flick latency (thermal stimulation). It is filed as in vivo. The note with it: mice; for effect on tail flick latency (analgesia), drug alone: acetaminophen 300 mg/kg s.c. or BQ123 3 μg i.c.v. Here is the method: as §1, §2, §3
An analgesic response was determined by the tail flick method (C. Advocat et al., Brain Ref., 55(2), pp. 251-258 (1991); H. N. Bhargava, General Pharmacology, 28(1), pp. 61-64 (1997)). The tail flick latencies to thermal stimulation (focused light) were determined before and 30, 60, 90, 120, 180, 210, 240, 270, 300, and 360 minutes after injection of acetaminophen. The basal tail flick latency was about 2 seconds. A thermal stimulation cutoff time of 10 seconds was used to prevent damage to the tail of the animal. The analgesic response in each mouse was expressed as mean±SEM.

For data set [4] the following is noted: acetaminophen 3900 mg/d; afebrile patients with acute stroke; cited from earlier work.
The conditions of data set [5]: 4000 mg acetaminophen daily (n=20); placebo group 36.4%; p=0.014; cited from earlier work.
The conditions of data set [6]: daily dose of 6000 mg acetaminophen, suppositories, five days; cited from earlier work.
For another data set, the target named is COX-1 (Homo sapiens, UniProt P23219). The note with it: in vitro; cited from earlier work.
Chain of COX-1 (P23219 24-599): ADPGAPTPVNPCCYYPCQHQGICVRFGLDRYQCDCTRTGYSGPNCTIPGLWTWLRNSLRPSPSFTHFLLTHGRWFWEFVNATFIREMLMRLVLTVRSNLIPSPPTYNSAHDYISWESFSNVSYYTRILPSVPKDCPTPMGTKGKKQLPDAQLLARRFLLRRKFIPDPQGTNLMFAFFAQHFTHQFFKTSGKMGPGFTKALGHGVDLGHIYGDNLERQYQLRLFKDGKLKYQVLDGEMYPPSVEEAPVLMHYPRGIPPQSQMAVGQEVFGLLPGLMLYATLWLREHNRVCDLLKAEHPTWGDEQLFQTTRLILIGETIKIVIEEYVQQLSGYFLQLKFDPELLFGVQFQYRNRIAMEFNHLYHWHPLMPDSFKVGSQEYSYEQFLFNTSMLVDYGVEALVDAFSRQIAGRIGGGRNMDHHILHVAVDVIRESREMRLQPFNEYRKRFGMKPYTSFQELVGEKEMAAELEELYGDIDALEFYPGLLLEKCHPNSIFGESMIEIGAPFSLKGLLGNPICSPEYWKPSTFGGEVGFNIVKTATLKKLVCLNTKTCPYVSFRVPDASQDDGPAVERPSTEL
Another data set addresses T2, COX-2 (Homo sapiens, UniProt P35354).
T2 sequence (P35354 18-604): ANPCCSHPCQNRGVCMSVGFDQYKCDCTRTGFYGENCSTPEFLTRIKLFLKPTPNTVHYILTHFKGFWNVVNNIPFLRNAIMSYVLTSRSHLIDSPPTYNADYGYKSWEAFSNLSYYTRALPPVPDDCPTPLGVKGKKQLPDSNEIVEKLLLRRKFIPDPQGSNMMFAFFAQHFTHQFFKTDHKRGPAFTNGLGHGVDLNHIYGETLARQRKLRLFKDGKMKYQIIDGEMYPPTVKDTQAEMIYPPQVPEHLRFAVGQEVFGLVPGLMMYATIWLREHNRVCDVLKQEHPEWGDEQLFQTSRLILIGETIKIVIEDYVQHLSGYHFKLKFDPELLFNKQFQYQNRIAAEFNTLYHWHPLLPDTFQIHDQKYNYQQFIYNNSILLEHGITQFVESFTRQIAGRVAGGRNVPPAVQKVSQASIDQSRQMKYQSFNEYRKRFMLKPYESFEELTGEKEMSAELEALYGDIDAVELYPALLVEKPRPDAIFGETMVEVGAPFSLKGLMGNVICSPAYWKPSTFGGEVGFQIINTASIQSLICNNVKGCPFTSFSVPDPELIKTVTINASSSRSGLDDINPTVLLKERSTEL
The note with it: in vitro; cited from earlier work.

The test system of a further data set is prostaglandin synthesis. The conditions noted are these: in vivo; cited from earlier work.
Setting [7] is: BQ123 3 μg i.c.v. 30 minutes prior to acetaminophen 300 mg/kg s.c.

On to `Cc1noc(NS(=O)(=O)c2cccc3c(N(C)C)cccc23)c1C` [BMS-182874], for which the “effect on BP and HR per se” value at ETA receptor (administered in the lateral cerebral ventricle) is “did not affect BP and HR per se”. For the same compound, the “effect on clonidine induced hypotension and bradycardia” value at ETA receptor (pretreatment) is reported as “significantly blocked”.
For `CC(C)C[C@@H]1NC(=O)[C@@H](C(C)C)NC(=O)[C@@H]2CCCN2C(=O)[C@@H](CC(=O)O)NC(=O)[C@@H](Cc2c[nH]c3ccccc23)NC1=O` [BQ123, cyclo (-D-Trp-D-Asp-Pro-D-Val-Leu-)] (cyclo(L[dW][dD]P[dV])), the “acute effect on body weight” value in [1] is given as “neither acetaminophen nor BQ123 produced any acute effect on body weight”. Besides, the “duration of hypothermic effect of acetaminophen in BQ123 pretreated mice” value in data set [2] (setting [7]) is “more than six”. In addition, the “effect of BQ123 on hypothermic effect of acetaminophen” value in data set [2] (mice, BQ123 3 μg i.c.v. 30 minutes prior to acetaminophen 300 mg/kg s.c.) is given as “significantly potentiated”. The “change in body temperature, drug alone” value in [2] (mice) is reported as “did not produce any significant change in body temperature”. Besides, the “effect of BQ123 on analgesic effect of acetaminophen” value in data set [3] (setting [7]) is listed as “not affected”. For the same compound, the “effect on tail flick latency (analgesia), drug alone” value in data set [3] (control about 2 seconds) is “did not produce any significant effect on tail flick latency”.
As for `CC(=O)Nc1ccc(O)cc1` [acetaminophen], the “change in body temperature, drug alone” value in data set [2] (mice) is “produced a significant hypothermia”. In addition, the “duration of hypothermia after acetaminophen” value in [2] (mice, acetaminophen 300 mg/kg s.c., vehicle pretreatment) was “about three”. Moreover, the “effect on tail flick latency (analgesia), drug alone” value in data set [3] (control about 2 seconds) is on record as “produced significant analgesia”. In [3] (acetaminophen 300 mg/kg s.c., cutoff time 10 seconds, control about 2 seconds), the “tail flick latency reached” value is listed as “more than 10 seconds”. The “duration of significant increase in tail flick latencies” value in [3] (after acetaminophen 300 mg/kg s.c.) was “three”. For the same compound, in data set [4], the “core body temperature (CBT)” value was “small reduction in CBT”. Moreover, in data set [5], the “patients with fever of greater than 37.5° C.” value is listed as 5.0%. In addition, the “body temperature shortly after ischemic stroke” value in data set [6] is listed as “small, but potentially beneficial, decrease in body temperature”. In addition, the “inhibition of COX-1” value at COX-1 was “weakly”. In addition, on COX-2, the “inhibition of COX-2” value was “weakly”. In addition, the “reduction of prostaglandin synthesis” value in the data set on prostaglandin synthesis is recorded as “markedly”.
